Counter-ions that a name gives are not always drawn.
Experiments:
JAK2 tyrosine kinase = target: T1, JAK2 tyrosine kinase (Homo sapiens, UniProt O60674); assay: JAK2 tyrosine kinase inhibitory activity test (ELISA); type: biochemical, humans; details: 25 μM ATP substrate solution, 30° C., one hour
T1 construct: purchased Carna Biosciences, Inc
Method: (§1) 1. Preparation of Test Substance:
(§2) A test substance was dissolved in dimethyl sulfoxide (DMSO) to 10 mM and further diluted with DMSO to concentrations of 100-fold of the concentrations to be measured (100, 10, 1, 0.1, and 0.01 μM). Furthermore, the resultant was diluted with an assay buffer to 20-fold, thereby preparing a solution as a test substance solution. A solution prepared by diluting DMSO with an assay buffer to 20-fold was used as a negative control. A buffer containing 15 mM Tris-Cl (pH 7.5), 0.01 (v/v) % Tween-20, and 1 mM dithiothreitol was used as the assay buffer.
(§3) 2. Measurement of ROS Tyrosine Kinase Activity and JAK2 Tyrosine Kinase Activity:
(§4) The activity was measured by adopting the ELISA method. […] Finally, an ROS kinase or a JAK2 kinase (derived from humans, Carna Biosciences, Inc.) (diluted with the assay buffer to 0.25 nM) was added to the plate at 20 μL per well, and the resulting mixture was stirred. A reaction was performed at 30° C. for one hour. After the plate was washed 4 times with a washing buffer (50 mM Tris-Cl (pH 7.5), 150 mM NaCl, and 0.02 (v/v) % Tween-20), a blocking buffer (0.1% bovine serum albumin, 50 mM Tris-Cl (pH 7.5), 150 mM NaCl, and 0.02 (v/v) % Tween-20) was added to the plate at 150 μL per well, and incubated at 30° C. for 30 minutes. The blocking buffer was then removed, and a horse radish peroxidase-labeled anti-phosphorylated tyrosine antibody (BD Biosciences, Inc.) (diluted with the blocking buffer to 10,000-fold) was added to the plate at 100 μL per well, and the plate was incubated at 30° C. for 30 minutes. After the plate was washed 4 times with the washing buffer, a 3,3′,5,5′-tetramethylbenzidine solution (Sigma-Aldrich Co., Ltd.) was added to the plate at 100 μL per well to develop the color for 10 minutes. The reaction was stopped by adding 0.1 M sulfuric acid at 100 μL per well. An absorbance at 450 nm was measured with a microplate reader (Model 3550, manufactured by BIO-RAD, Benchmark, manufactured by BIO-RAD, or iMARK, manufactured by BIO-RAD).
(§5) 3. Analysis of Measurement Results:
(§6) A non-linear regression analysis was performed for the measured absorbance with an SAS system (SAS Institute Inc.), and a concentration of each of the test substances of inhibiting the ROS tyrosine kinase activity or JAK2 tyrosine kinase activity at 50% (IC50) was calculated. The inhibitory activity (IC50, nM) of each of the test substances against the ROS tyrosine kinase or JAK2 tyrosine kinase is shown in Tables 6 to 8.

FIG-ROS/BaF3 cell = target: T2, FIG-ROS/BaF3 cell (Homo sapiens, UniProt P08922); assay: Proliferation inhibitory activity test against FIG-ROS/BaF3 cell; type: cell-based; details: 3 days incubation, cell counting kit; read-out: Proliferation inhibitory activity against FIG-ROS/BaF3 cell (IC50)
T2 construct: fused on or other part: Q9HD26 (Golgi-associated PDZ and coiled-coil motif-containing protein)
Method: A BaF3 cell which had been transformed by introducing the FIG-ROS fusion gene (derived from U118MG human glioma cell) (FIG-ROS/BaF3 Cell) was prepared on a culture medium, seeded on a 96-well plate in the number of 1×10^3/100 μL per well, and then allowed to stand in a CO2 incubator (at 37° C. and 5% CO2). As the culture medium, 10% FBS (fetal bovine serum)-incorporated RPMI-1640 was used.
2. Proliferation Inhibitory Activity Test:
A test substance was dissolved in dimethyl sulfoxide (DMSO) to 10 mM and further diluted with DMSO to 100-fold to prepare a 100 μM solution. This was diluted with a 1% DMSO-incorporated medium to concentrations of 10-fold of the concentration to be measured (10,000, 1,000, 100, 10, and 1 nM). Each of the medicine solutions was added at 11 μL per well and mixed. To a control having no medicine added thereto, a 1% DMSO-incorporated medium was added, and incubated in a CO2 incubator (at 37° C. and 5% CO2) for 3 days. After completion of the incubation, the number of live cells was counted using a cell counting kit. First of all, each cell counting kit solution was added at 5 μL per well and mixed, and incubated in a CO2 incubator (at 37° C. and 5% CO2) for 4 hours. An absorbance at 450 nm was measured with a microplate reader (Model 3550, manufactured by BIO-RAD, Benchmark, manufactured by BIO-RAD, or iMARK, manufactured by BIO-RAD) with a reference wavelength of 650 nm.
as §5
A non-linear regression analysis was performed for the measured absorbance with an SAS system (SAS Institute Inc.), and a concentration of each of the test substances of inhibiting the cell proliferation at 50% (IC50) was calculated. The proliferation inhibitory activity (IC50, nM) of each of the test substances against the FIG-ROS/BaF3 cell is shown in Table 9.

ROS tyrosine kinase = target: T3, ROS tyrosine kinase (Homo sapiens, UniProt P08922); assay: ROS tyrosine kinase inhibitory activity test (ELISA); type: biochemical, humans; details: 25 μM ATP substrate solution, 30° C., one hour
T3 construct: purchased Carna Biosciences, Inc
Method: as §1, §2, §3, §4, §5, §6

T2 sequence (P08922 whole entry, stated change not applied, the tested form may be a part): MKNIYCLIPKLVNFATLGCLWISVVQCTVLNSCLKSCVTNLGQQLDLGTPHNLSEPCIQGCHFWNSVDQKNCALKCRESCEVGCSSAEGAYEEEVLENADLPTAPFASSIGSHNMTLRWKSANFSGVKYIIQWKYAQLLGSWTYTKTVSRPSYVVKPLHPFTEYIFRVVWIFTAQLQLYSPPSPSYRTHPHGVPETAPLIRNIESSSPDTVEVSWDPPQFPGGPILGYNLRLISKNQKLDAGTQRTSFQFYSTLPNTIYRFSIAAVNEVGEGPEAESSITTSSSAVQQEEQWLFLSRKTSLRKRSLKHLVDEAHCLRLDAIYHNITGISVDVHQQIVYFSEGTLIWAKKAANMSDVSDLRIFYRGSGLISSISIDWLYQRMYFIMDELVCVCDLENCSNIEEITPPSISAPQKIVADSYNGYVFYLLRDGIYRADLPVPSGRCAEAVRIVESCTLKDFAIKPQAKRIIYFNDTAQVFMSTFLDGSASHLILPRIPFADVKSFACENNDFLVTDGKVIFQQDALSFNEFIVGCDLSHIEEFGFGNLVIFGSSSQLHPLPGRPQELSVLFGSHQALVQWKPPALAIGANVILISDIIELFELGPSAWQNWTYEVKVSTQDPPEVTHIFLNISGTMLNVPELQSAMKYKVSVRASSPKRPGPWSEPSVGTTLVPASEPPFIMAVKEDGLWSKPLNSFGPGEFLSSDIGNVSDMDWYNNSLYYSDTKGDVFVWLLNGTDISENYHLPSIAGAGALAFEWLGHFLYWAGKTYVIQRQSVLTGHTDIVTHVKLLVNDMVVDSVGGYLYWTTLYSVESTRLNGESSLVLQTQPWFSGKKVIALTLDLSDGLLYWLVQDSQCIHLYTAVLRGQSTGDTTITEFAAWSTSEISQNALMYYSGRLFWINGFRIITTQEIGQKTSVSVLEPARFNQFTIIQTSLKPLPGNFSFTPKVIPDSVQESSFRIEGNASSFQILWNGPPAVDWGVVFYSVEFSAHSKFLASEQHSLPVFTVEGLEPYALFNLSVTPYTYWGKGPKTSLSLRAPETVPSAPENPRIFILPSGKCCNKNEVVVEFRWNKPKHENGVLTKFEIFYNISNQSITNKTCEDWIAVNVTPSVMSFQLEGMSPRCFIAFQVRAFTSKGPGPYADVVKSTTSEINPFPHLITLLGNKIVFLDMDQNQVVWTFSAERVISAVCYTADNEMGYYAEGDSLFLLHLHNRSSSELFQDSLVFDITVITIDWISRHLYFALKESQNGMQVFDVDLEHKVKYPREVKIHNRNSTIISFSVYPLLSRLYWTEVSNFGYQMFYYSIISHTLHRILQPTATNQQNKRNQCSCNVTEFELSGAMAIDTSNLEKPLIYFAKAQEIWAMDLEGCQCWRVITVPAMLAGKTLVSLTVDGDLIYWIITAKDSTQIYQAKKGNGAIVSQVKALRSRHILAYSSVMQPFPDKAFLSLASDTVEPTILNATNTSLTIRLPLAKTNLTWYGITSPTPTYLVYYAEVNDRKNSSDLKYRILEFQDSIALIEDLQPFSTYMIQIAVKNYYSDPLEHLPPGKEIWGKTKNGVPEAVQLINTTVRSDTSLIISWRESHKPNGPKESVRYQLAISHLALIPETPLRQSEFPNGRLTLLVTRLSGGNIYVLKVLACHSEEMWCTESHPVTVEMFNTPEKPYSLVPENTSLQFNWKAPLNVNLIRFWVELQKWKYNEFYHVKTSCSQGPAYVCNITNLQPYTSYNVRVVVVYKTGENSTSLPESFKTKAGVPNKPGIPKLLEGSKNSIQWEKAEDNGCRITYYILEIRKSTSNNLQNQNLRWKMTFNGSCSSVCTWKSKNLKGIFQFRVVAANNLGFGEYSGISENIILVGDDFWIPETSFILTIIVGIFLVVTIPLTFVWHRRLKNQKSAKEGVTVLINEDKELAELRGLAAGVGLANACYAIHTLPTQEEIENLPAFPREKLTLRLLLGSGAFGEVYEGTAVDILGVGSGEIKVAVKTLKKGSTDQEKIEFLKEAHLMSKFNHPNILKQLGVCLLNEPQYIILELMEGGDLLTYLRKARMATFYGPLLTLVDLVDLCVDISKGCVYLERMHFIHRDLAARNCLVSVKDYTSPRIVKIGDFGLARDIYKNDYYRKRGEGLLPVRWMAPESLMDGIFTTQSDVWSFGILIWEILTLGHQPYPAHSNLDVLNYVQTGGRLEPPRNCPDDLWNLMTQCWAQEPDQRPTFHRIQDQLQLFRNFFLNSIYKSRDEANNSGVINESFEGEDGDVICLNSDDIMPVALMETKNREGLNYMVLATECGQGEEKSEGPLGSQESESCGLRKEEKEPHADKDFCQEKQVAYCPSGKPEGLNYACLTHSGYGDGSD
T1 sequence (O60674 whole entry): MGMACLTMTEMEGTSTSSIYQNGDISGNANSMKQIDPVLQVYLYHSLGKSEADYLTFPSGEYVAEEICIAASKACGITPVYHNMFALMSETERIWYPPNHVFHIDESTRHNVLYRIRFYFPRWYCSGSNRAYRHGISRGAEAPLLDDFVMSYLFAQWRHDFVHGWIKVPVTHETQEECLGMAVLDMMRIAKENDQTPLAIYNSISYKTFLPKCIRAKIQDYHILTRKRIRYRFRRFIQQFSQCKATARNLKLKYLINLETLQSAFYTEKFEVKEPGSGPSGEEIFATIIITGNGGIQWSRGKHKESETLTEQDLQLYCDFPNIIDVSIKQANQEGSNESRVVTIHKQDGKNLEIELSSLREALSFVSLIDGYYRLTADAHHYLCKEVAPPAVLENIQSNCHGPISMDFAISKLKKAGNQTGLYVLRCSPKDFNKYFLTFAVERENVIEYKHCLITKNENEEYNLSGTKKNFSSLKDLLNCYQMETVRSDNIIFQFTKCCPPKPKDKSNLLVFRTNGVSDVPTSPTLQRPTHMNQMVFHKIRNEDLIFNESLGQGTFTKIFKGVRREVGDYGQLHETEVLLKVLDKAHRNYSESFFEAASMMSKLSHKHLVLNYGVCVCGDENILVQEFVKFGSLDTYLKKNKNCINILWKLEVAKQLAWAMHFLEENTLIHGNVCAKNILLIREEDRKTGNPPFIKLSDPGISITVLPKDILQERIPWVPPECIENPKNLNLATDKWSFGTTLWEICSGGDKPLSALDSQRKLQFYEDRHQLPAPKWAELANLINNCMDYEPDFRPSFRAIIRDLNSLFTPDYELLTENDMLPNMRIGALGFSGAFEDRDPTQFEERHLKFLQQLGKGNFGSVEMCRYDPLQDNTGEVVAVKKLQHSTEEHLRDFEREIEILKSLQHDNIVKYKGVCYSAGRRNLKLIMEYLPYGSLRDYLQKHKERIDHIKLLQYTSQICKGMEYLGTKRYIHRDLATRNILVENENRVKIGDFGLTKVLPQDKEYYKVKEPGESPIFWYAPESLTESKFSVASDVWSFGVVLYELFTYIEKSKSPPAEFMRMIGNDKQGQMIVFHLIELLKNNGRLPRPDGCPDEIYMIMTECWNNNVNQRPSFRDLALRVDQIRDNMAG

IC50 (JAK2 tyrosine kinase) [µM]	GI50 (FIG-ROS/BaF3 cell) [µM]	IC50 (ROS tyrosine kinase) [µM]	Structure (SMILES)
0.19	0.0004	0.0039	Cc1ccc([C@@H]2CCCN2c2nc(Nc3ncc(C#N)s3)c(C)c(C(=O)NC3CCN(C)CC3)n2)cc1 [Example 54, 6-[(5-Cyano-1,3-thiazol-2-yl)amino]-5-methyl-2-[(2S)-2-(4-methylphenyl)pyrrolidin-1-yl]-N-(l-methylpiperidin-4-yl)pyrimidine-4-carboxamide]
> 1	0.0022	0.0027	COc1c(Nc2ncc(C#N)s2)nc(N2CCCC2c2ccc(C)cc2)nc1-c1cnco1 (stereo not drawn) [Example 11, 2-({5-Methoxy-2-[2-(4-methylphenyl)pyrrolidin-1-yl]-6-(1,3-oxazol-5-yl)pyrimidin-4-yl}amino)-1,3-thiazole-5-carbonitrile]
> 1	0.012	0.0041	Cc1ccc([C@@H]2CCCN2c2cnc(C3CC3)c(Nc3ncc(C)s3)n2)cc1 [Example 34, 3-Cyclopropyl-6-[(2S)-2-(4-methylphenyl)pyrrolidin-1-yl]-N-(5-methyl-1,3-thiazol-2-yl)pyrazine-2-amine]
> 1	0.0021	0.0042	Cc1ccc(C2CCCN2c2nc(Nc3ncc(C#N)s3)c(C)nc2C)cc1 (stereo not drawn) [Example 43, 2-({3,5-Dimethyl-6-[2-(4-methylphenyl)pyrrolidin-1-yl]pyrazin-2-yl}amino)-1,3-thiazole-5-carbonitrile]
> 1	0.027	0.065	Cc1ccc(C2CCCN2c2cc(C(F)(F)F)cc(Nc3ncc(C#N)s3)n2)cc1 (stereo not drawn) [Example 27, 2-({6-[2-(4-Methylphenyl)pyrrolidin-1-yl]-4-(trifluoromethyl)pyridin-2-yl}amino)-1,3-thiazole-5-carbonitrile]
0.5	0.0021	0.0006	COc1c(C)nc(N2CCC[C@H]2c2ccc(C)cc2)nc1Nc1ncc(C#N)s1 [Example 9, 2-({5-Methoxy-6-methyl-2-[(2S)-2-(4-methylphenyl)pyrrolidin-1-yl]pyrimidin-4-yl}amino)-1,3-thiazole-5-carbonitrile maleate]
0.74	0.0029	0.0023	COc1c(Nc2ncc(C#N)s2)nc(N2CCC[C@H]2c2ccc(C)cc2)nc1-c1cnc(C)nc1 [Example 60, 2-({5-Methoxy-2′-methyl-2-[(2S)-2-(4-methylphenyl)pyrrolidin-1-yl]-4,5′-bipyrimidin-6-yl}amino)-1,3-thiazole-5-carbonitrile]
> 1	0.0026	0.0021	COc1c(Nc2ncc(C#N)s2)nc(N2CCC[C@H]2c2ccc(C)cc2)nc1C(=O)N[C@H]1CC[C@H](O)CC1 [Example 62, 6-[(5-Cyano-1,3-thiazol-2-yl)amino]-N-(trans-4-hydroxycyclohexyl)-5-methoxy-2-[(2S)-2-(4-methylphenyl)pyrrolidin-1-yl]pyrimidine-4-carboxamide]
0.23	–	0.0021	N#Cc1cnc(Nc2nc(N3CCCC3c3ccc(F)cc3)cnc2C2CC2)s1 (stereo not drawn) [Example 40, 2-({3-Cyclopropyl-6-[2-(4-fluorophenyl)pyrrolidin-1-yl]pyrazin-2-yl}amino)-1,3-thiazole-5-carbonitrile]
> 1	–	0.052	COc1c(Nc2ncc(C#N)s2)nc(N2CCCC2c2ccc(C)cc2)nc1-c1cccnc1F (stereo not drawn) [Example 49, 2-({6-(2-Fluoropyridin-3-yl)-5-methoxy-2-[2-(4-methylphenyl)pyrrolidin-1-yl]pyrimidin-4-yl}amino)-1,3-thiazole-5-carbonitrile]
> 1	–	0.12	COc1c(Nc2ncc(C#N)s2)nc(N2CCCC2c2ccc(C)cc2)nc1C1CC1 (stereo not drawn) [Example 18, 2-({6-Cyclopropyl-5-methoxy-2-[2-(4-methylphenyl)pyrrolidin-1-yl]pyrimidin-4-yl}amino)-1,3-thiazole-5-carbonitrile]
> 1	–	0.047	N#Cc1cnc(Nc2nc(N3CCCC3c3ccc(F)cc3)cnc2-c2cncnc2)s1 (stereo not drawn) [Example 22, 2-({6-[2-(4-Fluorophenyl)pyrrolidin-1-yl]-3-(pyrimidin-5-yl)pyrazin-2-yl}amino)-1,3-thiazole-5-carbonitrile]
0.069	–	0.0005	COc1cc(C)ccc1C1CCCN1c1cncc(Nc2ncc(C#N)s2)n1 (stereo not drawn) [Example 30, 2-({6-[2-(2-Methoxy-4-methylphenyl)pyrrolidin-1-yl]pyrazin-2-yl}amino)-1,3-thiazole-5-carbonitrile]
0.28	–	0.017	Cc1ccccc1C1CCCN1c1cncc(Nc2ncc(C#N)s2)n1 (stereo not drawn) [Example 47, 2-({6-[2-(2-Methylphenyl)pyrrolidin-1-yl]pyrazin-2-yl}amino)-1,3-thiazole-5-carbonitrile]
0.21	–	0.0066	COc1ccccc1C1CCCN1c1cnc(C2CC2)c(Nc2ncc(C#N)s2)n1 (stereo not drawn) [Example 24, 2-({3-Cyclopropyl-6-[2-(2-methoxyphenyl)pyrrolidin-1-yl]pyrazin-2-yl}amino)-1,3-thiazole-5-carbonitrile]
> 1	–	0.0029	Cc1ccc([C@@H]2CCCN2c2cnc(C3CC3)c(Nc3ncc(C#N)s3)n2)cc1 [Example 35, 2-({3-Cyclopropyl-6-[(2S)-2-(4-methylphenyl)pyrrolidin-1-yl]pyrazin-2-yl}amino)-1,3-thiazole-5-carbonitrile]
0.62	–	0.018	COc1cccc(C2CCCN2c2cncc(Nc3ncc(C#N)s3)n2)c1 (stereo not drawn) [Example 38, 2-({6-[2-(3-Methoxyphenyl)pyrrolidine-1-yl]pyrazin-2-yl}amino)-1,3-thiazole-5-carbonitrile]
> 1	–	0.039	Cc1ccc(C2CCCN2c2nc(C)c(Br)c(Nc3ncc(C#N)s3)n2)cc1 (stereo not drawn) [Example 17, 2-({5-Bromo-6-methyl-2-[2-(4-methylphenyl)pyrrolidin-1-yl]pyrimidin-4-yl}amino)-1,3-thiazole-5-carbonitrile]
> 1	–	0.0081	COc1c(Nc2ncc(C#N)s2)nc(N2CCCC2c2ccc(C)cc2)nc1-c1cccnc1 (stereo not drawn) [Example 5, 2-({5-Methoxy-2-[2-(4-methylphenyl)pyrrolidin-1-yl]-6-(pyridin-3-yl)pyrimidin-4-yl}amino)-1,3-thiazole-5-carbonitrile]
0.25	–	0.0011	Cc1ccc([C@@H]2CCCN2c2cnc(C)c(Nc3ncc(C#N)s3)n2)cc1 [Example 20, 2-({3-Methyl-6-[(2S)-2-(4-methylphenyl)pyrrolidin-1-yl]pyrazin-2-yl}amino)-1,3-thiazole-5-carbonitrile hydrochloride]

Source: patent US9580413B2, “Substituted pyrrolidines as ROS tyrosine kinase inhibitors” (NIPPON SHINYAKU CO., LTD., priority 2012, dated 2017)
